Data reported in US12385058B2, “Herbicide tolerance protein, encoding gene thereof and use thereof” (Beijing Dabeinong Biotechnology Co., Ltd., priority 2018, dated 2025).

System: maize plants
Experiment: Herbicide tolerance of transgenic maize T1 plants (spraying, damage degree)
Format: in vivo
Details: 144 g ai/ha (8x Tri.)
Protocol: The degree of damage caused by the herbicide was measured for each plant according to the plant growth status 3 days after spraying (3 DAT), 7 days after spraying (7 DAT), 14 days after spraying (14 DAT) and 21 days after spraying (21 DAT): a growth status equivalent to that of the untreated plants is defined as having a damage degree of 0%; the case where leaves are locally chlorotic and yellow but the normal plant growth is substantially not affected is defined as having a damage degree of 50%; and the case where the whole plant is purple and dying is defined as having a damage degree of 100%. The maize plants into which the ALT02M1-02 nucleotide sequence was introduced were of three strains in total (S15, S16 and S17), the maize plants into which the ALT02M2-02 nucleotide sequence was introduced were of three strains in total (S18, S19 and S20), the maize plants into which the ALT02M3-02 nucleotide sequence was introduced were of three strains in total (S21, S22 and S23), the maize plants into which the ALT02-02 nucleotide sequence was introduced were of three strains in total (S24, S25 and S26), the control maize plants were of two strains in total (S27 and S28), and the wild-type maize plants were of one strain in total (CK2); and 10-15 plants were selected from each strain and tested.

[1] = maize genotype CK2 (wild-type maize plants)
[2] = maize genotype S15 (ALT02M1-02 introduced)
[3] = maize genotype S16 (ALT02M1-02 introduced)
[4] = maize genotype S17 (ALT02M1-02 introduced)
[5] = maize genotype S18 (ALT02M2-02 introduced)
[6] = maize genotype S19 (ALT02M2-02 introduced)
[7] = maize genotype S20 (ALT02M2-02 introduced)
[8] = maize genotype S21 (ALT02M3-02 introduced)
[9] = maize genotype S22 (ALT02M3-02 introduced)
[10] = maize genotype S23 (ALT02M3-02 introduced)
[11] = maize genotype S24 (ALT02-02 introduced)
[12] = maize genotype S25 (ALT02-02 introduced)
[13] = maize genotype S26 (ALT02-02 introduced)
[14] = maize genotype S27 (control maize plants, DBN100830N)
[15] = maize genotype S28 (control maize plants, DBN100830N)

Q: Which results are given for “methyl 2-[N-(4-methoxy-6-methyl-1,3,5-triazin-2-yl)-N-methylcarbamoylaminosulfonyl]benzoate [tribenuron-methyl]”?
A: Average damage % 3DAT [1]: 46%; Average damage % 7DAT [1]: 86%; Average damage % 14DAT [1]: 100%; Average damage % 21DAT [1]: 100%; Average damage % 3DAT [2]: 5%; Average damage % 7DAT [2]: 0%; Average damage % 14DAT [2]: 0%; Average damage % 21DAT [2]: 0%; Average damage % 3DAT [3]: 6%; Average damage % 7DAT [3]: 0%; Average damage % 14DAT [3]: 0%; Average damage % 21DAT [3]: 0%; Average damage % 3DAT [4]: 3%; Average damage % 7DAT [4]: 0%; Average damage % 14DAT [4]: 0%; Average damage % 21DAT [4]: 0%; Average damage % 3DAT [5]: 0%; Average damage % 7DAT [5]: 0%; Average damage % 14DAT [5]: 0%; Average damage % 21DAT [5]: 0%; Average damage % 3DAT [6]: 0%; Average damage % 7DAT [6]: 0%; Average damage % 14DAT [6]: 0%; Average damage % 21DAT [6]: 0%; Average damage % 3DAT [7]: 0%; Average damage % 7DAT [7]: 0%; Average damage % 14DAT [7]: 0%; Average damage % 21DAT [7]: 0%; Average damage % 3DAT [8]: 3%; Average damage % 7DAT [8]: 0%; Average damage % 14DAT [8]: 0%; Average damage % 21DAT [8]: 0%; Average damage % 3DAT [9]: 2%; Average damage % 7DAT [9]: 0%; Average damage % 14DAT [9]: 0%; Average damage % 21DAT [9]: 0%; Average damage % 3DAT [10]: 0%; Average damage % 7DAT [10]: 0%; Average damage % 14DAT [10]: 0%; Average damage % 21DAT [10]: 0%; Average damage % 3DAT [11]: 14%; Average damage % 7DAT [11]: 5%; Average damage % 14DAT [11]: 0%; Average damage % 21DAT [11]: 0%; Average damage % 7DAT [12]: 4%; Average damage % 14DAT [12]: 0%; Average damage % 21DAT [12]: 0%; Average damage % 3DAT [13]: 20%; Average damage % 7DAT [13]: 7%; Average damage % 14DAT [13]: 0%; Average damage % 21DAT [13]: 0%; Average damage % 3DAT [14]: 61%; Average damage % 7DAT [14]: 82%; Average damage % 14DAT [14]: 100%; Average damage % 21DAT [14]: 100%; Average damage % 3DAT [15]: 53%; Average damage % 7DAT [15]: 78%; Average damage % 14DAT [15]: 100%; Average damage % 21DAT [15]: 100%
